Drawing on PubChem BioAssay (NCI), this text covers GI50 and TGI for 45 compounds.

Where “and” joins values, the source holds several entries; their conditions need not be identical. Identical values can stand only once.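 Values below derive from 48-hour exposures of cells grown in 96-well plates, with endpoints linearly interpolated between the two concentrations bracketing the appropriate inhibition level. GI50 is the concentration that inhibits growth by half. TGI: total growth inhibition.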 Bounds are passed on as bounds.

The experiment concerns MDA-MB-468 breast. As to the kind of experiment: NCI anticancer screen, dose series, 48 h.
For the compound `CN(C)c1ccc2[nH]c3c(C(N)=O)cc(=O)c(=O)c=3oc2c1`, the GI50 was 2020 nM and the TGI is 5520 nM.
Turning to `CC1=C[C@@H]2c3c(c(O)c(O)c4oc5cc(O)cc(O)c5c(=O)c34)[C@@H](c3cc(O)c(O)c4oc5cc(O)cc(O)c5c(=O)c34)[C@@H]2C(C)(C)C1`, the GI50 was 3350 nM and the TGI is 16200 nM.
For `C=C(C)C(=O)Nc1ccc(-c2c(-c3ccc(Oc4nccc(C)n4)c(F)c3)c3c(N)ncnc3n2C)cc1`, the GI50 is 1830 nM and the TGI was 6830 nM.
In the same order, the values of `CCc1c(C)c2cc(-n3c(-c4ccc(OC)cc4)csc3=N)c(O)c(C)c2oc1=O` are 1930 nM and 7760 nM.
In the same order, the values of `C(=N\Nc1ccc2ccccc2n1)/c1ccccn1` are 313 nM and 2460 nM.
Turning to `CCOCCOCCOCCOCCOCCOCCOCCOCCOCCO` (tested in a mixture with another compound), the GI50 was 372 nM and the TGI was 2180 nM.
On the same counts, the results for `Cc1c(C(N)=O)sc2nc(C)n(/N=c3\scc(-c4ccccc4)n3Cc3ccccc3)c(=O)c12` are 2650 nM and above 100000 nM.
In the case of `COc1ccc2c(c1)nnc1c3cccnc3[nH]c21`, the GI50 was 66.7 nM and 55.6 nM; the TGI is 237 nM and 1100 nM.
Take `COc1ccc([I+]c2ccc(OC)cc2)cc1`: the GI50 was 256 nM and the TGI amounted to 17900 nM.
In the case of `CNc1cc(-c2cccc(OC(F)(F)F)c2)nc2ccc(N3CCCC3)cc12`, the GI50 was 2110 nM and 1830 nM; the TGI is 3870 nM and 3490 nM.
For the compound `COc1ccc(-c2[nH]ncc2Nc2cc(OC)c(OC)c(OC)c2)cc1`, the GI50 was 435 nM and the TGI is 52300 nM.
With `CN1CCN(c2ccc(NC3=CC(=O)c4ncncc4C3=O)cc2)CC1`, the GI50 was 189 nM and the TGI is 416 nM.
As for `COc1cc(C2NC(=O)C(C#N)=C(Nc3cccc(C)c3)S2)ccc1O` (stereo not given), the GI50 was above 100000 nM and the TGI was above 100000 nM.
For `CC12O[C@H](C[C@@H](OC(=O)CCC(=O)O)[C@H]1O)n1c3ccccc3c3c4c(c5c6ccccc6n2c5c31)C(=O)NC4=O`, the GI50 was 1720 nM and the TGI turned out to be 10800 nM.
In the same order, the values of `O=C1NC(=NCCc2ccc(Br)cc2)S/C1=C\c1ccc2ncccc2c1` are above 16500 nM and above 25000 nM.
In the same order, the values of `O=C1C(Cl)=C(NCCCN(CCCNC2=C(Cl)C(=O)c3ccccc3C2=O)C2=C(Cl)C(=O)c3ccccc3C2=O)C(=O)c2ccccc21` are 1210 nM and 2870 nM.
On the same counts, the results for `COc1ccc2nc3ccccc3c(NCCNCC(C)O)c2c1` (stereo not given) are 300 nM and 953 nM.
In the case of `CCC(=O)Nc1nnc(Cc2ccc(OC)c(OC)c2)s1`, the GI50 is above 100000 nM and the TGI is above 100000 nM.
Consider `Cc1cc(N2CCOCC2)nc(NCc2cc(Nc3ccnc4cc(Cl)ccc34)ccc2F)n1`, for which the GI50 is 1890 nM and the TGI was 3910 nM.
Turning to `S=C(SSC(=S)N1CCCCC1)N1CCCCC1`, the GI50 is 16900 nM and the TGI turned out to be 69800 nM.
Turning to `O=C1/C(=C/c2ccc([N+](=O)[O-])o2)Oc2ccc(Cl)cc21`, the GI50 is 1550 nM and the TGI was determined as 3450 nM.
On the same counts, the results for `C[C@]12CCC(=O)C[C@@H]1CC[C@@H]1[C@@H]2CC[C@]2(C)[C@@H](OC(=O)N(CCCl)N=O)CC[C@@H]12` are 1060 nM and 4720 nM.
On to `Cc1cc(N(CCNc2ccnc3cc(Cl)ccc23)Cc2ccc3c(c2)OCO3)nc(N2CCCC2)n1`, for which the GI50 was 1470 nM and the TGI was determined as 3740 nM.
`CC(C)(C)[Si](C)(C)OC1[C@@H](COC(=O)NC(=O)CCl)O[C@@H](n2cnc3c(N)ncnc32)[C@H]1O[Si](C)(C)C(C)(C)C` (stereo not given in full): the GI50 is 3840 nM and the TGI worked out at 11100 nM.
In the same order, the values of `CC/C=C\C[C@H]1C/C=C2/C(=O)C(Cl)=C[C@@H]2C/C=C\CCCC(=O)O1` are 309 nM and 869 nM.
With `CCCCCCCCN=C(NCCCCCCCC)SCc1cccc2ccccc12`, the GI50 was 1410 nM and the TGI is 2810 nM.
In the same order, the values of `COc1cnccc1Nc1nc(-c2nn(Cc3c(F)cc(OCCO)cc3F)c3ccccc23)ncc1OC` are 2260 nM and 10600 nM.
Take `Fc1ccc(Nc2nc(Nc3ccc(-c4nc5ccccc5[nH]4)cc3)c3cn[nH]c3n2)cc1`: the GI50 was 1910 nM and the TGI was found to be 3740 nM.
On the same counts, the results for `CC(=O)c1c(C)c2cnc(Nc3ccc(N4CCNCC4)cn3)nc2n(C2CCCC2)c1=O` are 3540 nM and 15700 nM.
In the same order, the values of `Oc1[nH]c2ccccc2c1C=Nc1ccc(-n2cncn2)cc1` are above 20700 nM and above 25000 nM.
In the same order, the values of `O=C1/C(=C/c2ccc(C(F)(F)F)cc2)COc2ccc(O)c(O)c21` are 1530 nM and 2990 nM.
`CNC(=O)c1cc(Oc2ccc(NC(=O)Nc3cc(C(C)(C)C)nn3-c3ccc4ncccc4c3)c(F)c2)ccn1`: the GI50 was 1950 nM and 2430 nM; the TGI is 4530 nM and 5190 nM.
As to `COC(=O)c1cc(-c2ccc(S(C)(=O)=O)cc2)[nH]c1N/N=C/c1c(Cl)cccc1Cl`, the GI50 was 4270 nM and the TGI is above 100000 nM.
On the same counts, the results for `O=C1Cc2cc(CCN3CCNCC3)c(Cl)cc2N1` are 2240 nM and 7420 nM.
On the same counts, the results for `COc1ccc(-c2c(-c3ccc(C#N)c(F)c3)nc(N3CCC(N)CC3)n(C)c2=O)cc1F` are 7910 nM and 23200 nM.
On the same counts, the results for `COC(=O)CC1=C(C)/C(=C/c2[nH]c(-c3ccc[nH]3)cc2OC)N=C1C` are 162 nM and 1760 nM.
As for `COc1cc(-c2ccc[nH]2)[nH]c1/C=C1\N=C(C)C(CC(=O)OCC(C)(C)C)=C1C`, the GI50 is 82 nM and the TGI was determined as 1190 nM.
Consider `CCOC(=O)/C=C1/SC(=Nc2ccc(C#N)cc2)N(Cc2ccco2)C1=O`, for which the GI50 is 2970 nM and the TGI stood at 14200 nM.
On the same counts, the results for `COc1cc(C(=O)n2nc(N)c3c(C)cc(C)nc32)cc(OC)c1OC` are 2920 nM and above 100000 nM.
On the same counts, the results for `CCS(=O)(=O)c1ccc(OC)c(Nc2ncc(-c3cccc(F)c3)o2)c1` are above 25000 nM and above 25000 nM.
In the same order, the values of `COc1ccc2c(c1)-c1c(c3cc(OC)ccc3n(CCN(C)C)c1=O)C2=O` are 1750 nM and 9190 nM.
`O=C(CI)Nc1ccc(Br)cc1`: the GI50 was 1830 nM and the TGI was found to be 3740 nM.
In the same order, the values of `CCN1C(=O)N(CC)C2C1N=C(SC)N2/N=C/C=C/c1ccccc1OC` (stereo not given) are 256 nM and 729 nM.
On the same counts, the results for `COc1cc2nc(-c3ccc(C(F)(F)F)cc3)cc(OCCCNCC3CCCO3)c2cc1OC` (stereo not given) are 8890 nM and 23300 nM.
On to `CSc1nc2c(c(=O)n1C)C(c1ccccc1)C1=C(N2)/C(=C/c2ccccc2)CCC1` (stereo not given), for which the GI50 is 2840 nM and the TGI is 29700 nM.
